Experimental data published in US5547975A, “Benzopyranopyrazolyl derivatives for the treatment of inflammation” (priority 1994, dated 1996).

Legend:
[1] = tested on: carrageenan-induced hyperalgesic foot withdrawal; test: Rat Carrageenan-induced Analgesia Test; type: in vivo, rat (male Sprague-Dawley); conditions: oral, @ 30 mg/ka body weight, 3 hours after carrageenan injection
Procedure: Rat Carrageenan-induced Analgesia Test
The analgesia test using rat carrageenan was performed with materials, reagents and procedures essentially as described by Hargreaves, et al., (Pain, 32, 77 (1988)). Male Sprague-Dawley rats were treated as previously described for the Carrageenan Foot Pad Edema test. Three hours after the injection of the carrageenan, the rats were placed in a special plexiglass container with a transparent floor having a high intensity lamp as a radiant heat source, positionable under the floor. After an initial twenty minute period, thermal stimulation was begun on either the injected foot or on the contralateral uninjected foot. A photoelectric cell turned off the lamp and timer when light was interrupted by paw withdrawal. The time until the rat withdraws its foot was then measured. The withdrawal latency in seconds was determined for the control and drug-treated groups, and percent inhibition of the hyperalgesic foot withdrawal determined.

[2] = molecular target: T1, Human COX II (Homo sapiens, UniProt P35354); test: Evaluation of COX II activity in vitro (recombinant enzyme, PGE2 ELISA); type: biochemical; conditions: 10 μM arachidonic acid, pre-incubation 10-20 minutes, pH 8.0; read-out: Human COX II ID50
T1 construct: made in house; host or cells: SF9 insect cells, recombinant baculovirus (transfer vector pVL1393)
T1 sequence (P35354 18-604): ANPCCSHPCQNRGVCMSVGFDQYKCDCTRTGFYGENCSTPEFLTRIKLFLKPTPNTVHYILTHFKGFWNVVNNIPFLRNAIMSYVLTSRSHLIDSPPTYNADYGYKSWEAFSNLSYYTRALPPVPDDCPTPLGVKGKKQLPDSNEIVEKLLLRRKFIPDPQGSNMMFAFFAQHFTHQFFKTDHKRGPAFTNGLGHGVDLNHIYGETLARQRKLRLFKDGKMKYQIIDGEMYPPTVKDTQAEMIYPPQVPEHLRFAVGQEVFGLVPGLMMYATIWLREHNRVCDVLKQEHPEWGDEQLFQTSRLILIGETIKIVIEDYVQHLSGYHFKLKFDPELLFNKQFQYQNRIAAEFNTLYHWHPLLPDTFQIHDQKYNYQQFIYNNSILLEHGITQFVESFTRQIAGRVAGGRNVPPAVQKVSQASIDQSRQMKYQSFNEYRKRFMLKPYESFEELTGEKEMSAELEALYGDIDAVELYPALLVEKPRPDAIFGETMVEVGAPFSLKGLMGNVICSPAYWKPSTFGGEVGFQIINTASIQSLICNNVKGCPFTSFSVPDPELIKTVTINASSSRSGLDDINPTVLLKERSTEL
Procedure: (§1) Evaluation of COX I and COX II activity in vitro
The COX II inhibition activity of the compounds of this invention illustrated in the Examples was determined by the following methods.
(§2) a. Preparation of recombinant COX baculoviruses
(§3) A 2.0 kb fragment containing the coding region of either human or murine COX-I or human or murine COX-II was cloned into a BamH1 site of the baculovirus transfer vector pVL1393 (Invitrogen) to generate the baculovirus transfer vectors for COX-I and COX-II in a manner similar to the method of D. R. O'Reilly et al (Baculovirus Expression Vectors: A Laboratory Manual (1992)). Recombinant baculoviruses were isolated by transfecting 4 μg of baculovirus transfer vector DNA into SF9 insect cells ([…]) along with 200 ng of linearized baculovirus plasmid DNA by the calcium phosphate method. See M. D. Summers and G. E. Smith, A Manual of Methods for Baculovirus Vectors and Insect Cell Culture Procedures, Texas Agric. Exp. Station Bull. 1555 (1987). Recombinant viruses were purified by three rounds of plaque purification and high titer (10E7-10E8 pfu/ml) stocks of virus were prepared. For large scale production, SF9 insect cells were infected in 10 liter fermentors (0.5×10^6 /ml) with the recombinant baculovirus stock such that the multiplicity of infection was 0.1. After 72 hours the cells were centrifuged and the cell pellet homogenized in Tris/Sucrose (50 mM: 25%, pH 8.0) containing 1% 3-[(3-cholamidopropyl)dimethylammonio]-1-propanesulfonate (CHAPS). The homogenate was centrifuged at 10,000'G for 30 minutes, and the resultant supernatant was stored at -80° C. before being assayed for COX activity.
(§4) b. Assay for COX I and COX II activity:
(§5) COX activity was assayed as PGE2 formed/μg protein/time using an ELISA to detect the prostaglandin released. CHAPS-solubilized insect cell membranes containing the appropriate COX enzyme were incubated in a potassium phosphate buffer (50 mM, pH 8.0) containing epinephrine, phenol, and heme with the addition of arachidonic acid (10 μM). Compounds were pre-incubated with the enzyme for 10-20 minutes prior to the addition of arachidonic acid. Any reaction between the arachidonic acid and the enzyme was stopped after ten minutes at 37° C./room temperature by transferring 40 μl of reaction mix into 160 μl ELISA buffer and 25 μM indomethacin. The PGE2 formed was measured by standard ELISA technology (Cayman Chemical).

[3] = molecular target: T2, Human COX I (Homo sapiens, UniProt P23219); test: Evaluation of COX I activity in vitro (recombinant enzyme, PGE2 ELISA); type: biochemical; conditions: 10 μM arachidonic acid, pre-incubation 10-20 minutes, pH 8.0; read-out: Human COX I ID50
T2 construct: made in house; host or cells: SF9 insect cells, recombinant baculovirus (transfer vector pVL1393)
Source text: as §1, §2, §3, §4, §5

[4] = tested on: carrageenan foot pad edema (rat paw edema); test: Rat Carrageenan Foot Pad Edema Test; type: in vivo, rat (male Sprague-Dawley); conditions: oral, @ 30 mg/ka body weight, 3 hours after carrageenan injection
Procedure: Rat Carrageenan Foot Pad Edema Test
Male Sprague-Dawley rats were selected in each group so that the average body weight was as close as possible. Rats were fasted with free access to water for over sixteen hours prior to the test. […] One hour later a subplantar injection of 0.1 mL of 1% solution of carrageenan/sterile 0.9% saline was administered and the volume of the injected foot was measured with a displacement plethysmometer connected to a pressure transducer with a digital indicator. Three hours after the injection of the carrageenan, the volume of the foot was again measured.

T2 sequence (P23219 24-599): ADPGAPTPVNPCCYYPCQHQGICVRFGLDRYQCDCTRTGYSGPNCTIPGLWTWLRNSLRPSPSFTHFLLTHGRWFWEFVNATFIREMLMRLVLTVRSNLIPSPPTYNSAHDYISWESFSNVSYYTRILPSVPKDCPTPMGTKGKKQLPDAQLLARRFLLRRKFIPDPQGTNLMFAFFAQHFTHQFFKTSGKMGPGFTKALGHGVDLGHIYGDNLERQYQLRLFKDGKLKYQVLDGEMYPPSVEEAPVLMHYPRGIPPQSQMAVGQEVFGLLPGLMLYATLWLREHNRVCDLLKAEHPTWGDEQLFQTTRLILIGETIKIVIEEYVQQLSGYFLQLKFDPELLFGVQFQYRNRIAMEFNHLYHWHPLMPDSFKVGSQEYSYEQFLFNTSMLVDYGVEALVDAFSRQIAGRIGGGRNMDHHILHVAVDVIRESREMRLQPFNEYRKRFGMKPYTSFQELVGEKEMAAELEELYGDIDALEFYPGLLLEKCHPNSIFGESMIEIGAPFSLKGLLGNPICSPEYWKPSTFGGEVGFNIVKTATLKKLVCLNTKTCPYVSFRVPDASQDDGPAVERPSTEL

| SMILES | ANALGESIA % Inhibition [1] [%] | IC50 [2] [µM] | IC50 [3] [µM] | RAT PAW EDEMA % Inhibition [4] [%] |
| --- | --- | --- | --- | --- |
| COc1ccc2c(c1F)CSc1c(C(F)(F)F)nn(-c3ccc(S(C)(=O)=O)cc3)c1-2 [Example 2, 1,5-Dihydro-6-fluoro-7-methoxy-1-[(4-methylsulfonyl)phenyl]-3-(trifluoromethyl)-[2]benzothiopyrano[4,3-c]pyrazole] | 29 | < 0.1 | > 100 |  |
| NS(=O)(=O)c1ccc(-n2nc(C(F)(F)F)c3c2-c2cc(Cl)sc2CS3)cc1 [Example 21, 4-[7-Chloro-1,5-dihydro-3-trifluoromethyl-thieno[3',2':4,5]thiopyrano[3,2-c]pyrazol-1-yl]benzenesulfonamide] |  | < 0.1 | 8.7 | 26 |
| NS(=O)(=O)c1ccc(-n2nc(C(F)(F)F)c3c2-c2ccc(Cl)c(Cl)c2SC3)cc1 [Example 9, 4-[6,7-Dichloro-1,4-dihydro-3-(trifluoromethyl)-[1]benzothiopyrano[4,3-c]pyrazol-1-yl]benzenesulfonamide] |  | 48.2 | > 100 |  |
| NS(=O)(=O)c1ccc(-n2nc(C(F)(F)F)c3oc4ccccc4c32)cc1 [Example 6, 4-[3-(Trifluoromethyl)-1H-benzofuro[3,2-c]pyrazol-1-yl]benzenesulfonamide] |  | 23.5 | 11.1 |  |
